ChEMBL document CHEMBL5126517, “Structure-Activity Relationship in the Leucettine Family of Kinase Inhibitors” (J Med Chem, 2022)

Experiments:
[1] = Neurotoxicity against mouse HT-22 cells assessed as cell survival at 20 uM treated for 24 hrs by MTS assay; type: toxicity, cell-based; settings: ht-22, 24 h
[2] = system: HT-22; assay: Modulation of CLK1 pre-mRNA splicing in mouse HT-22 cells assessed as inclusion of CLK1 exon 4 by measuring change in threshold cycle at 10 uM measured after 4 hrs by real time PCR analysis; type: cell-based; settings: filed as modulator
[3] = system: U2OS; assay: Induction of PI3K/mTor-dependent autophagy in human U2OS cells assessed as number of LC3 foci per cell at 10 uM measured after 4 hrs; type: cell-based; settings: filed as activator
[4] = molecular target: T1, Dual specificity tyrosine-phosphorylation-regulated kinase 3 (Homo sapiens, UniProt O43781); assay: Inhibition of GST-fused human recombinant DYRK3 expressed in Escherichia coli using GRSRSRSRSRSR peptide as substrate incubated for 30 mins in presence of ATP by scintillation counting method
T1 sequence (O43781 whole entry): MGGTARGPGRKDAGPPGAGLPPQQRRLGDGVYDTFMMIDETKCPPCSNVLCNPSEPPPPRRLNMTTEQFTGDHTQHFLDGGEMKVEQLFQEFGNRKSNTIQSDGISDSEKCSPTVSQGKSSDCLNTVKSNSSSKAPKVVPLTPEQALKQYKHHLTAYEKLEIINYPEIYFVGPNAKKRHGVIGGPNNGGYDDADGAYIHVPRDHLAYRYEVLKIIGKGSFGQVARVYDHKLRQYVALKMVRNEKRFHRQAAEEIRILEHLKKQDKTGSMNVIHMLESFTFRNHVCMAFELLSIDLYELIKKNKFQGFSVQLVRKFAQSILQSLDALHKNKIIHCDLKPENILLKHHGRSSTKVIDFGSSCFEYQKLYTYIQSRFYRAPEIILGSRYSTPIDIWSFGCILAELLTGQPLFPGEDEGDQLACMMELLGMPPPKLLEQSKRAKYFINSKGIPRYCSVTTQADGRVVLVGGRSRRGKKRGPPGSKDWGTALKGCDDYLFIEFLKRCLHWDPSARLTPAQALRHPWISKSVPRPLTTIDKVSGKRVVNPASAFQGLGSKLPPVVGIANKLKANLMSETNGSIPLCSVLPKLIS

[5] = molecular target: Dual specificity protein kinase CLK4 (Mus musculus, UniProt O35493); assay: Inhibition of GST-fused mouse recombinant CLK4 expressed in Escherichia coli using GRSRSRSRSRSR peptide as substrate incubated for 30 mins in presence of ATP by scintillation counting method
[6] = molecular target: Dual specificity tyrosine-phosphorylation-regulated kinase 1A (Homo sapiens, UniProt Q13627); assay: Inhibition of GST-fused human recombinant DYRK1A expressed in Escherichia coli using GRSRSRSRSRSR peptide as substrate incubated for 30 mins in presence of ATP by scintillation counting method
[7] = molecular target: Cannabinoid receptor 1 (Homo sapiens, UniProt P21554); assay: Antagonist activity at CP-55940-activated CB1 receptor (unknown origin) at 10 uM by beta-arrestin assay relative to control; type: functional; design: scale not given: the % may be the effect or the level left
[8] = molecular target: T2, Dual specificity tyrosine-phosphorylation-regulated kinase 2 (Homo sapiens, UniProt Q92630); assay: Inhibition of GST-fused human recombinant DYRK2 expressed in Escherichia coli using GRSRSRSRSRSR peptide as substrate incubated for 30 mins in presence of ATP by scintillation counting method
T2 sequence (Q92630 whole entry): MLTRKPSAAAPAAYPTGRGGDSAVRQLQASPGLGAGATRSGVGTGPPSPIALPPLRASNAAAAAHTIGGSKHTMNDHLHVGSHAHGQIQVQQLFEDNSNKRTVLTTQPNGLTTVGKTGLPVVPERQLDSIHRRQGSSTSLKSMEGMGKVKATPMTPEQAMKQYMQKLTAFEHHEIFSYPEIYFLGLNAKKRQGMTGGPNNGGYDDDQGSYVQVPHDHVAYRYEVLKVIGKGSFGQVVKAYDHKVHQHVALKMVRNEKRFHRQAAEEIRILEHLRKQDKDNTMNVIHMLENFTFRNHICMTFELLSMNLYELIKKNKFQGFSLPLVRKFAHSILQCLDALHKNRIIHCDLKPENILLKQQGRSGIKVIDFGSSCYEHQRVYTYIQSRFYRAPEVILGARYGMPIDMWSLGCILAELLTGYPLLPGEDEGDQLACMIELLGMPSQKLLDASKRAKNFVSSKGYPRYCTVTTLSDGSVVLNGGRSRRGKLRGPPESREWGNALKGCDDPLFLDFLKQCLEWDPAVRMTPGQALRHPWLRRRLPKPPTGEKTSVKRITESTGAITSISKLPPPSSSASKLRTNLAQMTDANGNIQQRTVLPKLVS

[9] = molecular target: Dual specificity protein kinase CLK1 (Mus musculus, UniProt P22518); assay: Inhibition of GST-fused mouse recombinant CLK1 expressed in Escherichia coli using GRSRSRSRSRSR peptide as substrate incubated for 30 mins in presence of ATP by scintillation counting method
[10] = molecular target: Serine/threonine-protein kinase pim-1 (Homo sapiens, UniProt P11309); assay: Inhibition of human recombinant Pim1 expressed in Escherichia coli using histone H1 as substrate incubated for 30 mins in presence of ATP by scintillation counting method
[11] = molecular target: Dual specificity protein kinase CLK2 (Mus musculus, UniProt O35491); assay: Inhibition of mouse recombinant GST-fused CLK2 expressed in Escherichia coli using GRSRSRSRSRSR peptide as substrate incubated for 30 mins in presence of ATP by scintillation counting method
[12] = molecular target: Dual specificity protein kinase CLK3 (Mus musculus, UniProt O35492); assay: Inhibition of GST-fused mouse recombinant CLK3 expressed in Escherichia coli using GRSRSRSRSRSR peptide as substrate incubated for 30 mins in presence of ATP by scintillation counting method
[13] = molecular target: Casein kinase 2 (Homo sapiens, UniProt P67870+P68400+P19784+Q8NEV1); assay: Inhibition of human recombinant CK2 using RRRDDDSDDD peptide as substrate incubated for 30 mins in presence of ATP by scintillation counting method; type: protein assay
[14] = molecular target: Dual specificity tyrosine-phosphorylation-regulated kinase 1B (Homo sapiens, UniProt Q9Y463)
[15] = molecular target: Glycogen synthase kinase-3 (Sus scrofa, UniProt B2LUN4+I6LNT8); assay: Inhibition of porcine brain GSK-3alpha/beta using YRRAAVPPSPSLSRHSSPHQpSEDEEE as substrate incubated for 30 mins in presence of ATP by scintillation counting method; type: tissue-based
[16] = system: HT-22; assay: Neuroprotective activity against glutamate-induced cell death in mouse HT-22 cells treated for 24 hrs by MTS assay; type: functional, cell-based; settings: HT-22, 24 h

Dual specificity protein kinase CLK3, sequence (O35492 whole entry, the tested form may be a part): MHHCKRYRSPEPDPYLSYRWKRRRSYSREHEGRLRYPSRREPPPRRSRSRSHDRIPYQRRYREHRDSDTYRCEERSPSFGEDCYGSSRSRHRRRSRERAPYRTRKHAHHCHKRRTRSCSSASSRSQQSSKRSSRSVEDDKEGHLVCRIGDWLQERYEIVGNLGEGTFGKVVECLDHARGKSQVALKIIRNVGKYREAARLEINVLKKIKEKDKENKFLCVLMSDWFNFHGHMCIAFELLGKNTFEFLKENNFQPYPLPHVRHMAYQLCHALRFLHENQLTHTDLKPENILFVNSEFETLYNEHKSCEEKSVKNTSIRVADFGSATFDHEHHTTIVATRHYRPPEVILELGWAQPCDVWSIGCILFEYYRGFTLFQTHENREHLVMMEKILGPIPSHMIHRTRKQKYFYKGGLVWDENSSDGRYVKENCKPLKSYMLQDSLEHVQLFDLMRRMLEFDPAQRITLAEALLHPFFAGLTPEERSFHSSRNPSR
Dual specificity tyrosine-phosphorylation-regulated kinase 1B, sequence (Q9Y463 whole entry): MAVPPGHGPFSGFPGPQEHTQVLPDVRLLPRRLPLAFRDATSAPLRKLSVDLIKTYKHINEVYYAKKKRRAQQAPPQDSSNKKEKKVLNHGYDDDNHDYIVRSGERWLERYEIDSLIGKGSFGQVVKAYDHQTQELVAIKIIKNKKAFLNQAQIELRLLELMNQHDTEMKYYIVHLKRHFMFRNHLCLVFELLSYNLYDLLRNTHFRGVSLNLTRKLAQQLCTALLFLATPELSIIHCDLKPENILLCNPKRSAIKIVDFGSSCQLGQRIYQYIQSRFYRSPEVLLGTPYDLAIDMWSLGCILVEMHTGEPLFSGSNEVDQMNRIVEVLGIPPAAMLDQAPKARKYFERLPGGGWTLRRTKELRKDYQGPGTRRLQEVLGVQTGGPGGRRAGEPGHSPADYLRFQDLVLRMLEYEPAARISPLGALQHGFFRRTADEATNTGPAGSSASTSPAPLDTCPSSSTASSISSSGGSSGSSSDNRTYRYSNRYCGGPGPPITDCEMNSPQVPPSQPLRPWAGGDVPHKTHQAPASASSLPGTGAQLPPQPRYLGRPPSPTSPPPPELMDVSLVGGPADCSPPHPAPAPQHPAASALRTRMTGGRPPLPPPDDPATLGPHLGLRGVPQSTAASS
Dual specificity protein kinase CLK4, sequence (O35493 whole entry, the tested form may be a part): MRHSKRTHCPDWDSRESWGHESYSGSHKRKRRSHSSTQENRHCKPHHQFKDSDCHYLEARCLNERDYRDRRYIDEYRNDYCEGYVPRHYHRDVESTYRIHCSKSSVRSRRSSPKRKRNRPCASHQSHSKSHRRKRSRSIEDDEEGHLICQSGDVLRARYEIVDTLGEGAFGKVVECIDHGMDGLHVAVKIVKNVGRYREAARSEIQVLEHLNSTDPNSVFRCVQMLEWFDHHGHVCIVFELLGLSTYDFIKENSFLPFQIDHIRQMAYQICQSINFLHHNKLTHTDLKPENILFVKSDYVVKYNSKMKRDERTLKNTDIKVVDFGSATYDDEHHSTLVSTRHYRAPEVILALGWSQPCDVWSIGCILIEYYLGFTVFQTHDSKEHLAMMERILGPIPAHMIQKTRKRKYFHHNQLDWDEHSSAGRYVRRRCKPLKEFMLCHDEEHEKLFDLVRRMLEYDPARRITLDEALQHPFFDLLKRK
Dual specificity protein kinase CLK1, sequence (P22518 whole entry, the tested form may be a part): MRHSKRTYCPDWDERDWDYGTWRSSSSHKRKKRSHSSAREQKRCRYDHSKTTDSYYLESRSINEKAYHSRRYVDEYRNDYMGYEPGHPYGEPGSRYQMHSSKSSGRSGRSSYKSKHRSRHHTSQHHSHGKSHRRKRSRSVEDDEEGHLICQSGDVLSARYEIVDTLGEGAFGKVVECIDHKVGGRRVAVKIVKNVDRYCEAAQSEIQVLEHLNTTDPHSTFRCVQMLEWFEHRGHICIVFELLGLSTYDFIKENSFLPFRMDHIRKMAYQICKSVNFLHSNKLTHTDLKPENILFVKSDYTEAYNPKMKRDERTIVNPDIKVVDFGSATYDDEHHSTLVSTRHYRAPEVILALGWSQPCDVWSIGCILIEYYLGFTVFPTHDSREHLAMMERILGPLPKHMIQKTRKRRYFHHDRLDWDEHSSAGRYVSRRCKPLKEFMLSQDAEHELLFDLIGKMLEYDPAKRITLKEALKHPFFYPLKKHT
Cannabinoid receptor 1, sequence (P21554 whole entry, the tested form may be a part): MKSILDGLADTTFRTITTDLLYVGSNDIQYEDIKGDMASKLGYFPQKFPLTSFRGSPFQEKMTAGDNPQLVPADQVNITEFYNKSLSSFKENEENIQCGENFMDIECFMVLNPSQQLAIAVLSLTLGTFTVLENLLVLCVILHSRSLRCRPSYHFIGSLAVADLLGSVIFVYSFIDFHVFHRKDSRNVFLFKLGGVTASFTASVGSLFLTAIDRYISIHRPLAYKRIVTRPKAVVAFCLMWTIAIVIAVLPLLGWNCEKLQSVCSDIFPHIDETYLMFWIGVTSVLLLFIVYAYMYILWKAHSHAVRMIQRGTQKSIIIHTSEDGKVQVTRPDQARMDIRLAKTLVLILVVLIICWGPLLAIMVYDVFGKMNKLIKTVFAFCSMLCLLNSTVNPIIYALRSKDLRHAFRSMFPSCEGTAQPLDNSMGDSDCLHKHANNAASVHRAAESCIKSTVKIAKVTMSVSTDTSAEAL
Serine/threonine-protein kinase pim-1, sequence (P11309 whole entry, the tested form may be a part): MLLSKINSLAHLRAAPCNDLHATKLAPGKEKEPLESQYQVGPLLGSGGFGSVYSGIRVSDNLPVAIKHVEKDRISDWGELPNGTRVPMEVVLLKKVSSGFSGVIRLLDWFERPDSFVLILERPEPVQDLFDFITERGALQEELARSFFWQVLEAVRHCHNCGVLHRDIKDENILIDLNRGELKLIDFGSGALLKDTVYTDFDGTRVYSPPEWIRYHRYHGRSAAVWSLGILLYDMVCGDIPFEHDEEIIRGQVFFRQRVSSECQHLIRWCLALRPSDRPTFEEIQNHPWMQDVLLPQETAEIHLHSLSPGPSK
Dual specificity protein kinase CLK2, sequence (O35491 whole entry, the tested form may be a part): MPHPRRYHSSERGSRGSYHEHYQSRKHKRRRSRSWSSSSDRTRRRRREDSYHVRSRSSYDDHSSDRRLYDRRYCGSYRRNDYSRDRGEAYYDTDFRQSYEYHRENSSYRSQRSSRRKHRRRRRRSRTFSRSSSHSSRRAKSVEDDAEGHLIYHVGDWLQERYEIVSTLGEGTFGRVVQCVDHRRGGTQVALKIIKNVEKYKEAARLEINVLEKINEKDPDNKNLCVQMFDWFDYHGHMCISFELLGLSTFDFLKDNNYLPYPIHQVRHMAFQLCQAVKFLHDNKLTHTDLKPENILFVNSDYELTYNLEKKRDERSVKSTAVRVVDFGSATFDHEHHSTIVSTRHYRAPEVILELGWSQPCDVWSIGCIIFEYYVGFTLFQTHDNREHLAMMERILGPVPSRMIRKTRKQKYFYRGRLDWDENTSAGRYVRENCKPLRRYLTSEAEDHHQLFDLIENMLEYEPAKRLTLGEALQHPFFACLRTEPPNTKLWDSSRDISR

Row | SMILES | Activity [1] | deltaCT [2] | Activity [3] | IC50 [4] | IC50 [5] | IC50 [6] | Activity [7] | IC50 [8] | IC50 [9] | IC50 [10] | IC50 [11] | IC50 [12] | IC50 [13] | IC50 [14] | IC50 [15] | Activity ([7]; filed as antagonist) | EC50 [16]
1 | CCSC1=N/C(=C\c2ccc3c(c2)OCO3)C(=O)N1C | Non-Toxic | -0.99 | 6.8 | 300 nM | 110 nM | 240 nM | -0.7% | 340 nM | 120 nM | 2100 nM | 420 nM | 2100 nM | > 10000 nM | 980 nM | 1100 nM | – | –
2 | O=C1NC(N2CCCCC2)=N/C1=C\c1ccc2c(c1)OCO2 | Non-Toxic | 0.68 | 6.8 | 530 nM | 250 nM | 130 nM | -58.4% | 220 nM | 240 nM | 880 nM | 1300 nM | 4500 nM | 760 nM | 440 nM | 2600 nM | – | –
3 | O=C1NC(NC2CCNCC2)=N/C1=C\c1ccc2c(c1)OCO2 | Non-Toxic | 0.36 | 7.4 | 910 nM | 260 nM | 340 nM | -43.5% | 250 nM | 220 nM | 6400 nM | 900 nM | 5300 nM | > 10000 nM | 650 nM | 1300 nM | – | –
4 | O=C1OC(Nc2ccccc2)=N/C1=C\c1ccc2c(c1)OCO2 | Non-Toxic | -0.18 | 6.2 | – | – | – | -37.5% | – | – | – | – | – | – | – | – | – | –
5 | O=C1NC(N2CCOCC2)=N/C1=C\c1ccc2c(c1)OCO2 | Non-Toxic | 0.63 | 6.5 | 1900 nM | 290 nM | 440 nM | -51% | 410 nM | 430 nM | 2400 nM | 1500 nM | 5600 nM | 1100 nM | 1700 nM | 6500 nM | – | –
6 | CCCSC1=N/C(=C\c2ccc3c(c2)OCO3)C(=O)N1C | Non-Toxic | -1.36 | 6.2 | 620 nM | 22 nM | 340 nM | 37.2% | 330 nM | 64 nM | 2000 nM | 320 nM | > 10000 nM | > 10000 nM | 620 nM | 2000 nM | – | –
7 | COc1ccc(NC2=N/C(=C\c3ccc4c(c3)OCO4)C(=O)N2)cc1 | Non-Toxic | 0.5 | 5.9 | 6000 nM | 130 nM | 110 nM | – | 130 nM | 140 nM | – | 7500 nM | > 10000 nM | > 10000 nM | 270 nM | > 10000 nM | 50.5% | –
8 | CSC1=N/C(=C\c2ccc3c(c2)OCO3)C(=O)N1 | Non-Toxic | 0.13 | 5.9 | 410 nM | 80 nM | 110 nM | -23% | 80 nM | 73 nM | 1200 nM | 250 nM | 2400 nM | 2200 nM | 330 nM | 1800 nM | – | –
9 | Cn1cc(Cc2ccc3c(c2)OCO3)nc1N | Non-Toxic | 0.38 | 5.3 | > 10000 nM | 3000 nM | > 10000 nM | 8.9% | > 10000 nM | 3200 nM | – | > 10000 nM | > 10000 nM | – | – | – | – | –
10 | O=C1NC(N2CCCC2)=N/C1=C\c1ccc2c(c1)OCO2 | Non-Toxic | 0.05 | 5 | 930 nM | 380 nM | 630 nM | -59.1% | 930 nM | 600 nM | 1500 nM | 2300 nM | 3200 nM | 1200 nM | 2300 nM | 6200 nM | – | –
11 | CCSC1NC(=O)/C(=C/c2ccc3c(c2)OCO3)N1C (stereo not drawn) | Non-Toxic | 0.23 | 6.5 | – | – | – | -10.7% | – | – | – | – | – | – | – | – | – | –
12 | O=C1NC(N2CCC(N3CCCCC3)CC2)=N/C1=C\c1ccc2c(c1)OCO2 | Non-Toxic | 0.42 | 7.1 | 5200 nM | 1400 nM | 1100 nM | -51.1% | 1400 nM | 920 nM | 7600 nM | 3200 nM | > 10000 nM | > 10000 nM | 4400 nM | 6200 nM | – | –
13 | O=C1NC(Nc2ccc(O)c(F)c2)=N/C1=C\c1ccc2c(c1)OCO2 | Non-Toxic | – | 18.2 | 170 nM | 19 nM | 12 nM | -5.6% | 11 nM | 16 nM | 610 nM | 120 nM | 400 nM | 320 nM | 23 nM | 550 nM | – | 13000 nM
14 | Cc1ccc(C)c(NC2=N/C(=C\c3ccc4c(c3)OCO4)C(=O)N2)c1 | Non-Toxic | – | 26 | 800 nM | 23 nM | 24 nM | 10.8% | 22 nM | 50 nM | 7700 nM | 180 nM | 3500 nM | 1600 nM | 92 nM | 10000 nM | – | 7000 nM
15 | O=C1NC(Nc2ccc(N3CCNCC3)cc2)=N/C1=C\c1ccc2c(c1)OC=CO2 | Non-Toxic | – | 7.3 | 1100 nM | 640 nM | 530 nM | -20% | 350 nM | 1100 nM | 5400 nM | 2300 nM | > 10000 nM | 3000 nM | 1400 nM | 4600 nM | – | 1250 nM
